The values that follow come from patent US20220289794A1, “SYNTHETIC ANTIMICROBIAL PEPTIDES” (priority 2019, published 2022).

Series [1] relates to Methicillin-resistant Staphylococcus aureus MRSA (ATCC BAA-1556). To be noted: ATCC BAA-1556.
A further series concerns S. aureus ATCC 29213. To be noted: ATCC 29213.
The test system of series [2] is Pseudomonas aeruginosa (ATCC 27883).
A further series in a line: in vitro. To be noted: human, fresh human red blood cells (washed), pH 7.4.
Series [3] deals with Escherichia coli (ATCC 25922). As to conditions: ATCC 25922.

As usually defined, the HC50 is the concentration that lyses half of the red blood cells.

Values after ≈ are worked out from the molar mass of the structure shown. Like-named read-outs stand apart in the source and are kept apart here. Non-standard residues stand in square brackets, D forms with d. Residues, ends and D or L forms follow the SMILES beside them. 2Nal = N[C@@H](Cc1ccc2ccccc2c1)C(=O)O; d2Nal = N[C@H](Cc1ccc2ccccc2c1)C(=O)O

Turning to `N=C(N)NCCC[C@@H]1NC(=O)[C@H](Cc2ccc3ccccc3c2)NC(=O)[C@H](Cc2ccc3ccccc3c2)NC(=O)[C@H](Cc2c[nH]c3ccccc23)NC(=O)[C@H](CCCNC(=N)N)NC(=O)[C@@H](CCCNC(=N)N)NC(=O)[C@H](CCCNC(=N)N)NC1=O` [IFX-106, c[Arg-Arg-arg-Arg-Trp-NaI-NaI]] (cyclo([2Nal][2Nal]RR[dR]RW)), the “MIC MRSA ATCC BAA-1556” value in series [1] worked out at 1.5 µg/mL (≈ 1.24 µM). Moreover, the “MIC S. aureus ATCC 29213” value in the series with S. aureus ATCC 29213 was found to be 1.5 µg/mL (≈ 1.24 µM). For the same compound, the “MIC P. aeruginosa ATCC 27883” value in series [2] (P. aeruginosa ATCC 27883) stood at 12.5 µg/mL (≈ 10.4 µM). This compound displayed an HC50 at 0.5 h in “in vitro” of 175 µg/mL. Besides, the “MIC E. coli ATCC 25922” value in series [3] came to 25 µg/mL (≈ 20.7 µM).

With `N=C(N)NCCC[C@@H]1NC(=O)[C@H](CCCNC(=N)N)NC(=O)[C@@H](CCCNC(=N)N)NC(=O)[C@H](CCCNC(=N)N)NC(=O)[C@H](Cc2ccc3ccccc3c2)NC(=O)[C@H](Cc2ccc3ccccc3c2)NC(=O)[C@H](Cc2c[nH]c3ccccc23)NC1=O` [IFX-107, c[Arg-arg-Arg-Arg-Trp-NaI-NaI]] (cyclo([2Nal][2Nal]R[dR]RRW)), the “MIC MRSA ATCC BAA-1556” value in series [1] was 1.5 µg/mL (≈ 1.24 µM). Besides, the “MIC S. aureus ATCC 29213” value with S. aureus ATCC 29213 turned out to be 1.5 µg/mL (≈ 1.24 µM). Moreover, the “MIC P. aeruginosa ATCC 27883” value in series [2] (ATCC 27883) amounted to 6.2 µg/mL (≈ 5.14 µM). For the same compound, the HC50 at 0.5 h in the series “in vitro” was found to be 175 µg/mL. In addition, the “MIC E. coli ATCC 25922” value in series [3] came to 12.5 µg/mL (≈ 10.4 µM).

Turning to `N=C(N)NCCC[C@@H]1NC(=O)[C@H](CCCNC(=N)N)NC(=O)[C@H](CCCNC(=N)N)NC(=O)[C@@H](CCCNC(=N)N)NC(=O)[C@H](Cc2ccc3ccccc3c2)NC(=O)[C@H](Cc2ccc3ccccc3c2)NC(=O)[C@H](Cc2c[nH]c3ccccc23)NC1=O` [IFX-108, c[arg-Arg-Arg-Arg-Trp-NaI-NaI]] (cyclo([2Nal][2Nal][dR]RRRW)), the “MIC MRSA ATCC BAA-1556” value in series [1] was found to be 1.5 µg/mL (≈ 1.24 µM). The “MIC S. aureus ATCC 29213” value against S. aureus ATCC 29213 amounted to 1.5 µg/mL (≈ 1.24 µM). For the same compound, the “MIC P. aeruginosa ATCC 27883” value in series [2] (ATCC 27883) was 6.2 µg/mL (≈ 5.14 µM). The HC50 at 0.5 h in the series “in vitro” turned out to be 350 µg/mL. In addition, in series [3], the “MIC E. coli ATCC 25922” value was found to be 12.5 µg/mL (≈ 10.4 µM).

For `N=C(N)NCCC[C@H]1NC(=O)[C@@H](CCCNC(=N)N)NC(=O)[C@@H](CCCNC(=N)N)NC(=O)[C@@H](CCCNC(=N)N)NC(=O)[C@@H](Cc2ccc3ccccc3c2)NC(=O)[C@@H](Cc2ccc3ccccc3c2)NC(=O)[C@H](Cc2c[nH]c3ccccc23)NC1=O` [IFX-109, c[arg-arg-arg-arg-Trp-naI-naI]] (cyclo(W[d2Nal][d2Nal][dR][dR][dR][dR])), in series [1], the “MIC MRSA ATCC BAA-1556” value came out at 1.5 µg/mL (≈ 1.24 µM). In addition, the “MIC S. aureus ATCC 29213” value against S. aureus ATCC 29213 is 3.1 µg/mL (≈ 2.57 µM). Besides, the “MIC P. aeruginosa ATCC 27883” value in series [2] (P. aeruginosa ATCC 27883) was found to be 12.5 µg/mL (≈ 10.4 µM). The compound further came in with an HC50 at 0.5 h in “in vitro” of 190 µg/mL. The “MIC E. coli ATCC 25922” value in series [3] came to 12.5 µg/mL (≈ 10.4 µM).

`N=C(N)NCCC[C@@H](N)C(=O)N[C@H](CCCNC(=N)N)C(=O)N[C@H](CCCNC(=N)N)C(=O)N[C@H](CCCNC(=N)N)C(=O)N[C@@H](Cc1c[nH]c2ccccc12)C(=O)N[C@H](Cc1ccc2ccccc2c1)C(=O)N[C@H](Cc1ccc2ccccc2c1)C(=O)O` [IFX-109-1] (H-[dR][dR][dR][dR]W[d2Nal][d2Nal]-OH): the “MIC MRSA ATCC BAA-1556” value in series [1] was found to be 3.1 µg/mL (≈ 2.53 µM). In addition, the “MIC S. aureus ATCC 29213” value with S. aureus ATCC 29213 amounted to 3.1 µg/mL (≈ 2.53 µM). Also, the “MIC P. aeruginosa ATCC 27883” value in series [2] (ATCC 27883) was determined as 12.5 µg/mL (≈ 10.2 µM). For the same compound, the HC50 at 0.5 h in the series “in vitro” is 375 µg/mL. Also, the “MIC E. coli ATCC 25922” value in series [3] worked out at 12.5 µg/mL (≈ 10.2 µM).

On to `N=C(N)NCCC[C@@H]1NC(=O)[C@@H](CCCNC(=N)N)NC(=O)[C@H](CCCNC(=N)N)NC(=O)[C@@H](CCCNC(=N)N)NC(=O)[C@@H](Cc2ccc3ccccc3c2)NC(=O)[C@@H](Cc2ccc3ccccc3c2)NC(=O)[C@H](Cc2c[nH]c3ccccc23)NC1=O` [IFX-110, c[arg-Arg-arg-Arg-Trp-naI-naI]] (cyclo([dR]R[dR]RW[d2Nal][d2Nal])), for which, in series [1], the “MIC MRSA ATCC BAA-1556” value turned out to be 1.5 µg/mL (≈ 1.24 µM). For the same compound, in the series on S. aureus ATCC 29213, the “MIC S. aureus ATCC 29213” value is 3.1 µg/mL (≈ 2.57 µM). The “MIC P. aeruginosa ATCC 27883” value in series [2] (P. aeruginosa ATCC 27883) was 12.5 µg/mL (≈ 10.4 µM). Further, in the series “in vitro”, the HC50 at 0.5 h was 225 µg/mL. For the same compound, in series [3], the “MIC E. coli ATCC 25922” value is 12.5 µg/mL (≈ 10.4 µM).
